According to patent US10898498B2, “Slow release oxysterols and methods of use” (Warsaw Orthopedic, Inc., priority 2015, dated 2021):
Entries after “also recorded” stand apart in the source; their conditions may differ.

What was measured:
[1] = test system: multipotent mesenchymal cells such as M2-10B4 (M2) marrow stromal cells and C3H10T1/2 embryonic fibroblasts; conditions: M2-10B4 marrow stromal cells and C3H10T1/2 embryonic fibroblasts; cited from earlier work
[2] = test system: rat two-level spine model (posterolateral space, L3-L5); test: Rat two-level posterolateral spine fusion model, implants placed bilaterally; radiographs and manual palpation; format: in vivo; conditions: for bone growth / bridging bone on radiographs: 4-week and 8-week timepoints; for spinal fusion by manual palpation evaluation of the spine segments: 8 weeks; for fusion observed (share of rat spines fused, manual palpation): matrix of Oxy133, collagen and ceramic wetted with sterile water, bilateral, 8-week sacrifice, 5/5 spines
Experimental: FIG. 6 illustrates uses of a formulation of malleable implants having 20 mg of Oxy133 on each side of the implant, in accordance with the malleable implants described herein. […] A dry composition of a matrix containing Oxy133, collagen and ceramic as described herein was prepared and wetted with sterile water to be implanted in rat spines as shown in FIG. 6. The wetted matrix was cut in half with a razor blade to yield two halves. The two implants were molded into cylindrical shapes prior to insertion and were positioned bilaterally in the posterolateral space of each test subject. Each implant contained 20 mg Oxy133. Radiographs were taken roughly 10 minutes after the procedure, 4 weeks after the procedure, and 8 weeks after the procedure. […] Fusion was tested at 8-week sacrifice by manual palpation. […] A dry composition of a matrix containing Oxy133, collagen and ceramic as described herein was prepared and wetted with sterile water to be implanted in rat spines as shown in FIG. 6. The wetted matrix was cut in half with a razor blade to yield two halves. The two implants were molded into cylindrical shapes prior to insertion and were positioned bilaterally in the posterolateral space of each test subject. Each implant contained 125 mg Oxy133. Radiographs were taken roughly 10 minutes after the procedure, 4 weeks after the procedure, and 8 weeks after the procedure. […] Fusion was tested at 8-week sacrifice by manual palpation.

Structure (SMILES): CC(C)CCC[C@](C)(O)[C@H]1CC[C@H]2[C@@H]3CC=C4C[C@@H](O)CC[C@]4(C)[C@H]3CC[C@@]21C [20(S)-hydroxycholesterol]
- osteogenic differentiation [1]: induce osteogenic differentiation

Structure (SMILES): CC(C)CC[C@@H](O)[C@@H](C)[C@H]1CC[C@H]2[C@@H]3CC=C4C[C@@H](O)CC[C@]4(C)[C@H]3CC[C@]12C [22(R)-hydroxycholesterol]
- osteogenic differentiation [1]: induce osteogenic differentiation

Structure (SMILES): CC(C)CC[C@H](O)[C@@H](C)[C@H]1CC[C@H]2[C@@H]3CC=C4C[C@@H](O)CC[C@]4(C)[C@H]3CC[C@]12C [22(S)-hydroxycholesterol]
- osteogenic differentiation [1]: induce osteogenic differentiation

Structure (SMILES): CCCCCC[C@](C)(O)[C@H]1CC[C@H]2[C@@H]3C[C@H](O)[C@H]4C[C@@H](O)CC[C@]4(C)[C@H]3CC[C@@]21C [Oxy133, (3S,5S,6S,8R,9S,10R,13S,14S,17S)-17-((S)-2-hydroxyoctan-2-yl)-10,13-dimethylhexadecahydro-1H-cyclopenta[a]phenanthrene-3,6-diol]
- bone growth / bridging bone on radiographs ([2]; each implant 20 mg Oxy133): Bone growth in rat test subjects can be seen; also recorded: promoted bridging bone across the transverse processes of L3-L5
- spinal fusion by manual palpation evaluation of the spine segments ([2]; each implant 20 mg Oxy133): yielded spinal fusion; also recorded: limited flexibility
- bone growth / bridging bone on radiographs ([2]; each implant 125 mg Oxy133): Bone growth in rat test subjects can be seen; also recorded: promoted bridging bone across the transverse processes of L3-L5
- spinal fusion by manual palpation evaluation of the spine segments ([2]; each implant 125 mg Oxy133): yielded spinal fusion; also recorded: limited flexibility
- fusion observed (share of rat spines fused, manual palpation) ([2]; each implant 20 mg Oxy133): 100%
- fusion observed (share of rat spines fused, manual palpation) ([2]; each implant 125 mg Oxy133): 100%
